Source: PMC6627779, “Experimental Approaches and Computational Modeling of Rat Serum Albumin and Its Interaction with Piperine” (International Journal of Molecular Sciences, 2019)

Biological target: T1, rat serum albumin (RSA) (Rattus norvegicus, UniProt P02770)
T1 construct: gene Alb
Test: Trp214 fluorescence quenching titration (steady-state, double-log Ka; IDF/Scatchard Kb […] ^−[…]), static mechanism confirmed by time-resolved fluorescence
Format: binding
Conditions: read-out: Ka (×10^4 M^-1) (converted)

T1 sequence (P02770 25-608): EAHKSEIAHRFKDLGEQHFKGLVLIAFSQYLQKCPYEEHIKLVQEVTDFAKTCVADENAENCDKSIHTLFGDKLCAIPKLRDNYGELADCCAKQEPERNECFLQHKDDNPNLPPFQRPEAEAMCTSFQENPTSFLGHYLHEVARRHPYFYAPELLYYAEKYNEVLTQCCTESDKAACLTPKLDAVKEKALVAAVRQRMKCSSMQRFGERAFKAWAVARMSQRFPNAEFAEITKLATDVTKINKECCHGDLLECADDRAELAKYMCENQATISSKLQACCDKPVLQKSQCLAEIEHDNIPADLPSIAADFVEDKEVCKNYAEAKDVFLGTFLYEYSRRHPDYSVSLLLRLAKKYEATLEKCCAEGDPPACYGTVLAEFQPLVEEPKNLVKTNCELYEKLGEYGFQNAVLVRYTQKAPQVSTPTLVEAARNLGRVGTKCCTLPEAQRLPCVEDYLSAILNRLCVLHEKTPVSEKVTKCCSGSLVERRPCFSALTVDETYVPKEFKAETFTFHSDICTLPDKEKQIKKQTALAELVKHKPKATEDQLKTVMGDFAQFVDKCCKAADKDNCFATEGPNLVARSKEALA

`O=C(/C=C/C=C/c1ccc2c(c1)OCO2)N1CCCCC1` [piperine] showed a Kd of 25.6 µM.
